Measured values taken from patent US20250122190A1, “HALOGEN-SUBSTITUTED PYRIDAZINONE COMPOUND AND APPLICATION THEREOF” (MEDSHINE DISCOVERY INC., priority 2021, published 2025).

Target: T1, hTRPC5-T478C (Homo sapiens, UniProt Q9UL62)
T1 sequence (Q9UL62 1-973): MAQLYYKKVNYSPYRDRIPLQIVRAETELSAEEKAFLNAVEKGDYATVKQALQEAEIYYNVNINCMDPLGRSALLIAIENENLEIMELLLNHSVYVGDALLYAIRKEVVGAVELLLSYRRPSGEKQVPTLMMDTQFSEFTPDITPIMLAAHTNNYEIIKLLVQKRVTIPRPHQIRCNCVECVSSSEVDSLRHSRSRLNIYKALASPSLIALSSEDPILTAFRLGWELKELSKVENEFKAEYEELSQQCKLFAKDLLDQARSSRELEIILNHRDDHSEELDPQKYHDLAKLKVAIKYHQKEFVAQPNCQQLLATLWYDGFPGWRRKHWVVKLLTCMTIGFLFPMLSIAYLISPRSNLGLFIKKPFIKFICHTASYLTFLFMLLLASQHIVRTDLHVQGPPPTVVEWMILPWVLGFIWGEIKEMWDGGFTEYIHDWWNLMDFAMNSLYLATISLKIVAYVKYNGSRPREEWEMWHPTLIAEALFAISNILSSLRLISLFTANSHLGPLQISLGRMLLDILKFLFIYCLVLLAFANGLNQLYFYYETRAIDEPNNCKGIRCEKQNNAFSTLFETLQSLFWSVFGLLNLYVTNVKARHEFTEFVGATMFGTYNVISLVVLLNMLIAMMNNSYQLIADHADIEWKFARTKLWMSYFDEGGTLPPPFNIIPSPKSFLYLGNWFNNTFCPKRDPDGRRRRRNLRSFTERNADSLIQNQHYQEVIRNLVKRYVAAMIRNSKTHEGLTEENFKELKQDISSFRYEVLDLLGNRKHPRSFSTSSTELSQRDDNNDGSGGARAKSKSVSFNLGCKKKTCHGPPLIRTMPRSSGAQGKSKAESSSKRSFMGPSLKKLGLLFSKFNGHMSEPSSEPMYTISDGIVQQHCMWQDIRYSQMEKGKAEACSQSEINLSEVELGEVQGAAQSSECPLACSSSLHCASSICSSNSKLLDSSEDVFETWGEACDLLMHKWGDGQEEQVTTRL
Experiment: hTRPC5-T478C patch clamp IC50 assay
Format: cell-based
Conditions: hTRPC5-T478C-HEK cells, whole-cell patch clamp, Englerin A agonist
Protocol: Cell culture: hTRPC5-T478C-HEK cells were cultured in a humid environment in 5% CO2 at 37° C.
Cell culture medium ingredients: • DMEM, Supplier: Gibco, Catalog No. 11965-092; • FBS, Supplier: Gibco, Catalog No. 10099-141C, Concentration: 10%; • Pen/Strep, Supplier: Invitrogen, Catalog No. 15140-122, Concentration: 1%; • Zeocin, Supplier: Invitrogen, Catalog No. R25005, Concentration: 200 μg/mL; • Blasticidin S, Supplier: Invitrogen, Catalog No. R21001, Concentration: 5 μg/mL.
In general, the TRPC5-T478C cell line was passaged three times weekly. The dilution factor for each passage was 1:3. Once the cells reached about 80% confluence in the T-75 flask, the cell line was digested with trypsin for about 1 minute and the cell suspension was removed from the flask with a pipette. Depending on the dilution ratio, the removed cell suspension would be transferred to another T-75 flask containing cell culture medium. Note that in order to maintain the logarithmic growth of the cells, the confluence of the cells should be maintained at the subconfluent stage and the cells should be passaged once every 2 to 3 days depending on the proliferation rate of the cell line.
(1) Extracellular fluid: sodium chloride (145 mmol/L), potassium chloride (4 mmol/L), magnesium chloride (1.5 mmol/L), glucose (10 mmol/L), hydroxyethyl piperazineethanesulfonic acid (HEPES, 10 mmol/L). The extracellular fluid was adjusted to pH 7.4 with NaOH, and the osmotic pressure was adjusted to about 305 mOsm/L with pure water or sucrose.
(2) Intracellular fluid: cesium chloride (140 mmol/L), ethylene glycol diethyl ether diamine tetraacetic acid (EGTA, 1 mmol/L), magnesium chloride (2 mmol/L), glucose (10 mmol/L), hydroxyethyl piperazineethanesulfonic acid (HEPES, 10 mmol/L). The intracellular fluid was adjusted to pH 7.2 with […], and the osmotic pressure was adjusted to about 295 mOsm/L with pure water or sucrose.
(3) The extracellular fluid was required to be formulated once a week, and the intracellular fluid was required to be subpackaged and stored at −20° C. after formulation.
Positive reference compounds Englerin A and 2-aminoethoxydiphenyl borate (2-APB) were dissolved in 100% DMSO and stored as a 10 mM working solution after formulation. The test compounds were dissolved in 100% DMSO and stored as a 10 mM working solution after formulation. The final concentration of DMSO in the test solution should be less than 0.3%.
Whole-cell patch clamping was performed at room temperature. The electrical signals recorded using an EPC 10 USB amplifier (HEKA Elektronik, Germany) were low-pass filtered at 3 kHz and finally recorded in PatchMaster 2×90.5 software (HEKA Elektronik, Germany). In this step, the quality control standards were that the cell high-resistance seal was formed at a value greater than 500 MOhms and the detection current was greater than 0.3 nA.
The recording electrode was a borosilicate glass capillary (GC150tF-10, Harvard Apparatus Co., UK), which was pulled by a vertical puller (NARISHIGE PC-10, Japan) and polished. In this step, the quality control standard was that the electrode resistance was between 2 to 5 MΩ.
During whole-cell patch clamp recordings, a continuous filling system (BT100-2J, LongerPump, China) was used to continuously perfuse extracellular fluid. The filling system was mounted on the stage of an upright microscope (FN—S2N, Nikon, Japan), and the filling tip was manually positioned under the microscope.
The voltage instructions for hTRPC5-T478C current amplitude detection were as follows: the cells were clamped as follows: the clamping potential changed in a stepped manner from −40 mV to −80 mV (duration: 50 ms); then the clamping voltage ramped up to +80 mV, and the whole process lasted for 200 ms; then clamping was performed at +80 mV for 50 ms, and finally, the voltage returned to the clamping potential of −40 mV. […]

Structure (SMILES) | IC50
O=c1[nH]ncc(N2CCc3c(ncnc3Sc3ccc(F)cc3C(F)(F)F)C2)c1Cl [Compound WX002] | 115 nM
O=c1[nH]ncc(N2CCc3c(ncnc3Oc3ccc(F)cc3Br)C2)c1Cl [Compound WX004] | 91.4 nM
O=c1[nH]ncc(N2CCc3c(ncnc3Oc3ccc(F)cc3C(F)(F)F)C2)c1Br [Compound WX009] | 304 nM
CC(F)(F)c1cc(F)ccc1Oc1ncnc2c1CCN(c1cn[nH]c(=O)c1Cl)C2 [Compound WX010] | 196 nM
COCc1nc2c(c(Oc3ccc(F)cc3C(F)(F)F)n1)CCN(c1cn[nH]c(=O)c1Cl)C2 [Compound WX011] | 191 nM
O=c1[nH]ncc(N2CCc3c(nc(CO)nc3Sc3ccc(F)cc3C(F)(F)F)C2)c1Cl [Compound WX012] | 16.6 nM
Nc1nc2c(c(Sc3ccc(F)cc3C(F)(F)F)n1)CCN(c1cn[nH]c(=O)c1Cl)C2 [Compound WX013] | 15.3 nM
